Laboratory results as given in ChEMBL document CHEMBL5375978, “Harnessing the Reactivity of Duclauxin toward Obtaining hPTP1B1-400 Inhibitors” (J Med Chem, 2023).
pIC50: −log10 of the molar value.

What follows are compounds tested against T1, Tyrosine-protein phosphatase non-receptor type 1 (Homo sapiens, UniProt P18031) (assay: Inhibition of wild type N-terminal 6 his tagged human PTP1B (1 to 400 residues) expressed in Escherichia coli (Rosetta, DE3) using p-NPP as substrate preincubated for 10 mins followed by substrate addition and measured after 20 mins by absorbance based analysis).
T1 sequence (P18031 whole entry): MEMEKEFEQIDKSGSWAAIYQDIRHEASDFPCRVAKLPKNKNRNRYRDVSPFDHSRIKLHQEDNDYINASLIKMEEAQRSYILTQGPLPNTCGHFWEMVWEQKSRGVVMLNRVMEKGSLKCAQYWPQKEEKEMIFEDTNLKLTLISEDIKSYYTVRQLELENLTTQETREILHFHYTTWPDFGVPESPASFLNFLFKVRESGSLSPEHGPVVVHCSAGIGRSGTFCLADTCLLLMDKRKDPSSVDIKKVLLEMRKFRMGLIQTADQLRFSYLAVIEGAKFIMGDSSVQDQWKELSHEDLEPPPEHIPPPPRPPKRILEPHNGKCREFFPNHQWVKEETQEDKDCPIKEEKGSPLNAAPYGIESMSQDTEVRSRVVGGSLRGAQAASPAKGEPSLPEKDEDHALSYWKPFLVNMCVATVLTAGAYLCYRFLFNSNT

Question: With COc1ccc(-n2cc3c4c(c(C)cc(O)c4c2=O)C2=C(C3=O)[C@]34COC(=O)c5c(O)cc(C)c(c53)C(=O)[C@H]2[C@@H]4OC(C)=O)cc1OC as the compound, how does the pIC50 read?
Answer: 4.77

Question: CO[C@@]12c3c(C)cc(O)c4c3C(=C(O)[C@@H]1[C@]13COC(=O)c5c(O)cc(C)c(c51)C(=O)[C@H]2[C@@H]3OC(C)=O)C=NC4=O was tested. Which pIC50 did it give?
Answer: 4.63

Question: With CC(=O)O[C@H]1[C@@H]2C(=O)c3c(C)cc(O)c4c3[C@@]1(COC4=O)C1=C2c2c(C)cc(O)c3c(=O)n(-c4cccnc4)cc(c23)C1=O as the compound, how does the pIC50 read?
Answer: 4.24

Question: How did the pIC50 turn out when CC(=O)O[C@H]1[C@@H]2C(=O)c3c(C)cc(O)c4c3[C@@]1(COC4=O)C1=C2c2c(C)cc(O)c3c(=O)n(-c4ccccc4F)cc(c23)C1=O was run?
Answer: 4.46

Question: With CC(=O)O[C@H]1[C@@H]2C(=O)c3c(C)cc(O)c4c3[C@@]1(COC4=O)C1=C2c2c(C)cc(O)c3c(=O)n(-c4cnc5ccccc5c4)cc(c23)C1=O as the compound, how does the pIC50 read?
Answer: 4.63

Question: How did the pIC50 turn out when CC(=O)O[C@H]1[C@@H]2C(=O)c3c(C)cc(O)c4c3[C@@]1(COC4=O)C1=C2c2c(C)cc(O)c3c(=O)n(-c4ccc(Br)cc4)cc(c23)C1=O was run?
Answer: 5.03

Question: With CC(=O)O[C@H]1[C@@H]2C(=O)c3c(C)cc(O)c4c3[C@@]1(COC4=O)C1=C2c2c(C)cc(O)c3c(=O)n(-c4ccc(Cl)cc4)cc(c23)C1=O as the compound, how does the pIC50 read?
Answer: 4.86

Question: CC(=O)O[C@H]1[C@@H]2C(=O)c3c(C)cc(O)c4c3[C@@]1(COC4=O)C1=C2c2c(C)cc(O)c3c(=O)n(-c4ccccc4[N+](=O)[O-])cc(c23)C1=O was tested. Which pIC50 did it give?
Answer: 4.57

Question: How did the pIC50 turn out when CO[C@@]12c3c(C)cc(O)c4c(=O)n(-c5ccc(Br)cc5)cc(c34)C(=O)[C@@H]1[C@]13COC(=O)c4c(O)cc(C)c(c41)C(=O)[C@H]2[C@@H]3OC(C)=O was run?
Answer: 4.32

Question: How did the pIC50 turn out when CC(=O)O[C@H]1[C@@H]2C(=O)c3c(C)cc(O)c4c3[C@@]1(COC4=O)C1=C2c2c(C)cc(O)c3c(=O)n(-c4ncccc4C)cc(c23)C1=O was run?
Answer: 4.49

Question: With CC(=O)O[C@H]1[C@@H]2C(=O)c3c(C)cc(O)c4c3[C@@]1(COC4=O)C1=C2c2c(C)cc(O)c3c(=O)n(-c4ccc5ncccc5c4)cc(c23)C1=O as the compound, how does the pIC50 read?
Answer: 5.24

Question: With CC(=O)O[C@H]1[C@@H]2C(=O)c3c(C)cc(O)c4c3[C@@]1(COC4=O)c1c(O)c3c4c(c(O)cc(C)c4c12)C(=O)OC3=O as the compound, how does the pIC50 read?
Answer: 4.66

Question: With CC(=O)O[C@H]1[C@@H]2C(=O)c3c(C)cc(O)c4c3[C@@]1(COC4=O)C1=C2c2c(C)cc(O)c3c(=O)[nH]cc(c23)C1=O as the compound, how does the pIC50 read?
Answer: 4.44

Question: With CC(=O)O[C@H]1[C@@H]2C(=O)c3c(C)cc(O)c4c3[C@@]1(COC4=O)C1=C2c2c(C)cc(O)c3c(=O)n(-c4ccc(C)cc4)cc(c23)C1=O as the compound, how does the pIC50 read?
Answer: 5.49

Question: CC(=O)O[C@H]1[C@@H]2C(=O)c3c(C)cc(O)c4c3[C@@]1(COC4=O)C1=C2c2c(C)cc(O)c3c(=O)n(-c4cccc5cccnc45)cc(c23)C1=O was tested. Which pIC50 did it give?
Answer: 5.19

Question: How did the pIC50 turn out when CC(=O)O[C@H]1[C@@H]2C(=O)c3c(C)cc(O)c4c3[C@@]1(COC4=O)C1=C2c2c(C)cc(O)c3c(=O)n(-c4ccc(O)cc4[N+](=O)[O-])cc(c23)C1=O was run?
Answer: 4.50

Question: CO[C@@]12c3c(C)cc(O)c4c(=O)n(CC(=O)O)cc(c34)C(=O)[C@@H]1[C@]13COC(=O)c4c(O)cc(C)c(c41)C(=O)[C@H]2[C@@H]3OC(C)=O was tested. Which pIC50 did it give?
Answer: 4.87

Question: With COc1ccc(-n2cc3c4c(c(C)cc(O)c4c2=O)C2=C(C3=O)[C@]34COC(=O)c5c(O)cc(C)c(c53)C(=O)[C@H]2[C@@H]4OC(C)=O)cc1 as the compound, how does the pIC50 read?
Answer: 4.83

Question: How did the pIC50 turn out when CC(=O)O[C@H]1[C@@H]2C(=O)c3c(C)cc(O)c4c3[C@@]1(COC4=O)C1=C2c2c(C)cc(O)c3c(=O)n(-c4cccc5ncccc45)cc(c23)C1=O was run?
Answer: 4.80

Question: CC(=O)O[C@H]1[C@@H]2C(=O)c3c(C)cc(O)c4c3[C@@]1(COC4=O)C1=C2c2c(C)cc(O)c3c(=O)n(-c4ccccc4I)cc(c23)C1=O was tested. Which pIC50 did it give?
Answer: 4.76

Question: CCOC(=O)[C@H](Cc1ccccc1)n1cc2c3c(c(C)cc(O)c3c1=O)[C@]1(OC)[C@H](C2=O)[C@]23COC(=O)c4c(O)cc(C)c(c42)C(=O)[C@H]1[C@@H]3OC(C)=O was tested. Which pIC50 did it give?
Answer: 4.25

Question: With COc1cc(-n2cc3c4c(c(C)cc(O)c4c2=O)C2=C(C3=O)[C@]34COC(=O)c5c(O)cc(C)c(c53)C(=O)[C@H]2[C@@H]4OC(C)=O)cc(OC)c1OC as the compound, how does the pIC50 read?
Answer: 4.28

Question: With CC(=O)O[C@H]1[C@@H]2C(=O)c3c(C)cc(O)c4c3[C@@]1(COC4=O)C1=C2c2c(C)cc(O)c3c(=O)n(-c4ccccn4)cc(c23)C1=O as the compound, how does the pIC50 read?
Answer: 4.44

Question: CC(=O)O[C@H]1[C@@H]2C(=O)c3c(C)cc(O)c4c3[C@@]1(COC4=O)C1=C2c2c(C)cc(O)c3c(=O)n(-c4ccccc4)cc(c23)C1=O was tested. Which pIC50 did it give?
Answer: 4.11

Question: CC(=O)O[C@H]1[C@@H]2C(=O)c3c(C)cc(O)c4c3[C@@]1(COC4=O)C1=C2c2c(C)cc(O)c3c(=O)n(-c4cccc(Cl)c4)cc(c23)C1=O was tested. Which pIC50 did it give?
Answer: 4.63

Question: With CO[C@@]12c3c(C)cc(O)c4c(=O)n(-c5ccc(C)cc5)cc(c34)C(=O)[C@@H]1[C@]13COC(=O)c4c(O)cc(C)c(c41)C(=O)[C@H]2[C@@H]3OC(C)=O as the compound, how does the pIC50 read?
Answer: 4.45

Question: How did the pIC50 turn out when CC(=O)O[C@H]1[C@@H]2C(=O)c3c(C)cc(O)c4c3[C@@]1(COC4=O)C1=C2c2c(C)cc(O)c3c(=O)n(-c4cccc([N+](=O)[O-])c4)cc(c23)C1=O was run?
Answer: 5.10

Question: With CC(=O)O[C@H]1[C@@H]2C(=O)c3c(C)cc(O)c4c3[C@@]1(COC4=O)C1=C2c2c(C)cc(O)c3c(=O)n(-c4ccc(I)cc4)cc(c23)C1=O as the compound, how does the pIC50 read?
Answer: 4.89

Question: With CC(=O)O[C@H]1[C@@H]2C(=O)c3c(C)cc(O)c4c3[C@@]1(COC4=O)c1c(O)c(C=O)c3cc(O)cc(C)c3c12 as the compound, how does the pIC50 read?
Answer: 5.46

Question: How did the pIC50 turn out when CO[C@H]1OC(=O)c2c(O)cc(C)c3c4c(c(O)c1c23)[C@]12COC(=O)c3c(O)cc(C)c(c31)C(=O)[C@H]4[C@@H]2OC(C)=O was run?
Answer: 4.42

Question: With CCOC(=O)[C@H](Cc1ccccc1)n1cc2c3c(c(C)cc(O)c3c1=O)C1=C(C2=O)[C@]23COC(=O)c4c(O)cc(C)c(c42)C(=O)[C@H]1[C@@H]3OC(C)=O as the compound, how does the pIC50 read?
Answer: 4.64

Question: How did the pIC50 turn out when CC(=O)O[C@H]1[C@@H]2C(=O)c3c(C)cc(O)c4c3[C@@]1(COC4=O)c1c(O)c3c4c(c(O)cc(C)c4c12)C(=O)O3 was run?
Answer: 4.09

Question: With CC(=O)O[C@H]1[C@@H]2C(=O)c3c(C)cc(O)c4c3[C@@]1(COC4=O)C1=C2c2c(C)cc(O)c3c(=O)n(-c4cc(C)ccn4)cc(c23)C1=O as the compound, how does the pIC50 read?
Answer: 4.80

Question: With CO[C@@]12c3c(C)cc(O)c4c(=O)n(-c5cccc(Cl)c5)cc(c34)C(=O)[C@@H]1[C@]13COC(=O)c4c(O)cc(C)c(c41)C(=O)[C@H]2[C@@H]3OC(C)=O as the compound, how does the pIC50 read?
Answer: 4.14

Question: With CC(=O)O[C@H]1[C@@H]2C(=O)c3c(C)cc(O)c4c3[C@@]1(COC4=O)C1=C2c2c(C)cc(O)c3c(=O)n(-c4ccccc4O)cc(c23)C1=O as the compound, how does the pIC50 read?
Answer: 4.88

Question: How did the pIC50 turn out when CC(=O)O[C@H]1[C@@H]2C(=O)c3c(C)cc(O)c4c3[C@@]1(COC4=O)C1=C2c2c(C)cc(O)c3c(=O)n(-c4ccc(O)cc4)cc(c23)C1=O was run?
Answer: 4.63

Question: How did the pIC50 turn out when CO[C@@H]1OC(=O)c2c(O)cc(C)c3c4c(c(O)c1c23)[C@]12COC(=O)c3c(O)cc(C)c(c31)C(=O)[C@H]4[C@@H]2OC(C)=O was run?
Answer: 4.90

Question: With CC(=O)O[C@H]1[C@@H]2C(=O)c3c(C)cc(O)c4c3[C@@]1(COC4=O)C1=C2c2c(C)cc(O)c3c(=O)n(-c4ccccc4Cl)cc(c23)C1=O as the compound, how does the pIC50 read?
Answer: 4.41

Question: How did the pIC50 turn out when CO[C@@]12c3c(C)cc(O)c4c(=O)n(-c5cccc([N+](=O)[O-])c5)cc(c34)C(=O)[C@@H]1[C@]13COC(=O)c4c(O)cc(C)c(c41)C(=O)[C@H]2[C@@H]3OC(C)=O was run?
Answer: 4.91
